Measured values taken from patent US10364244B2, “Crystal form of pyrroloquinoline quinone sodium salt and preparation method and use thereof” (Zhejiang Hisun Pharmaceutical Co., Ltd., priority 2015, dated 2019).

Key:
[1] = Hygroscopicity test (25° C., humidity 75%, 24 h); assay type: physicochemical; settings: for Rate of moisture absorption: 1 g sample, temperature of 25° C., humidity of 75%; for hygroscopicity (conclusion in words from the hygroscopicity test): 25° C., humidity 75%
Experimental: Hygroscopicity test. Test Conditions: watch glasses were placed in the environment at the temperature of 25° C. and the humidity of 75% for 24 h, then for each of the following samples, 1 g was weighed, and the weighted samples were quickly placed in the environment at the temperature of 25° C. and the humidity of 75% for 24 h to absorb moisture sufficiently.

[2] = at 65%-85% RH; cited from earlier work

Rate of moisture absorption ([1]; disodium salt) [%] | hygroscopicity (conclusion in words from the hygroscopicity test) ([1]; disodium salt) | SMILES | other results
0 | not hygroscopic | O=C(O)c1cc(C(=O)O)c2c(n1)C(=O)C(=O)c1cc(C(=O)O)[nH]c1-2.[Na].[Na] [Crystal form I, pyrroloquinoline quinone disodium salt] | 
0.30 |  | O=C(O)c1cc(C(=O)O)c2c(n1)C(=O)C(=O)c1cc(C(=O)O)[nH]c1-2.[Na].[Na] [Crystal form II, pyrroloquinoline quinone disodium salt] | 
0 | not hygroscopic | O=C(O)c1cc(C(=O)O)c2c(n1)C(=O)C(=O)c1cc(C(=O)O)[nH]c1-2.[Na].[Na] [Crystal form III, pyrroloquinoline quinone disodium salt] | 
 |  | O=C(O)c1cc(C(=O)O)c2c(n1)C(=O)C(=O)c1cc(C(=O)O)[nH]c1-2.[Na] [Crystal form IV, pyrroloquinoline quinone monosodium salt] | Rate of moisture absorption [1]: 0%; hygroscopicity (conclusion in words from the hygroscopicity test) [1]: not hygroscopic
0.85 |  | O=C(O)c1cc(C(=O)O)c2c(n1)C(=O)C(=O)c1cc(C(=O)O)[nH]c1-2.[Na].[Na] [Crystal form of the disodium salt in CN201080031945] [pyrroloquinoline quinone disodium salt, reference compound] | hygroscopicity (conclusion in words from the hygroscopicity test) ([1]; listed as crystal form in CN201080031945, disodium salt): strongest hygroscopicity
 |  | O=C(O)c1cc(C(=O)O)c2c(n1)C(=O)C(=O)c1cc(C(=O)O)[nH]c1-2.[Na] [crystal form A in CN201210452297.6, pyrroloquinoline quinone sodium salt] | hygroscopicity [2]: less than 3%
